Measured values: patent US10806717B2, “Methods and compositions for improving cognitive function” (The Johns Hopkins University, priority 2013, dated 2020)

Columns and labels:
[1] = test system: MAM-treated rats; details: cited from earlier work
[2] = test system: Memory-impaired aged rats; assay: Radial arm maze task with 2-hr delay, acute brivaracetam or seletracetam; assay type: in vivo, rat; details: acute i.p. 0.0625-4 mg/kg, 30-40 min before test; repeated measures ANOVA: brivaracetam p=0.039, seletracetam p=0.009
[3] = test system: Memory-impaired aged rats; assay: Water maze probe test after chronic brivaracetam; assay type: in vivo, rat; details: brivaracetam 2 mg/kg/day by osmotic mini-pump
Description: The radial arm maze experiments used acute administration of seletracetam (0-4 mg/kg), brivaracetam (0-4 mg/kg), or saline vehicle given by intraperitoneal injection (in a volume of 1 ml/kg) 30-40 min prior to test sessions. In the chronic treatment experiment, memory-impaired aged rats were implanted subcutaneously in the intrascapular region with osmotic mini-pumps (ALZET, Durect Corporation, Cupertino, Calif.) with brivaracetam (2 mg/kg/day) or saline vehicle starting two weeks prior to assessment in the water maze.
Rats were trained and tested in a novel water maze environment to assess the effect of drug treatment. The water maze used here was housed in a different building and was surrounded by curtains with a novel set of patterns relative to the maze used for initial assessment of cognitive status. The training protocol consisted of 6 trials per day for 2 days to locate a submerged escape platform. On each trial, a rat was released in the maze from one of four equally spaced starting positions around the perimeter of the pool. The starting position varied from trial to trial. […] The rat was then removed from the platform and placed in a holding cage for another 40 s before the next trial. Approximately 24 hr after the last training trial, a probe test in the absence of the escape platform was given to assess spatial memory.

[4] = test system: MAM-treated rats; details: rat, in vivo; cited from earlier work
[5] = test system: aged-impaired (AI) rats; assay: Radial Arm Maze task with one-hour delay, levetiracetam and/or valproate; assay type: in vivo, rat; details: valproate on its own
[6] = test system: Memory-impaired aged rats; details: cited from earlier work

## C#Cc1ccc2c(c1)C(c1ccccc1F)=N[C@H](C)c1c(C(=O)OCC)ncn1-2 [SH-053-2′F—R—CH3]
[1]; MAM rats, systemic or infused into ventral HPC, to levels of saline-treated rats
  number of spontaneously active DA neurons in the ventral tegmental area (VTA): reduces
[1]; MAM-treated rats
  increased locomotor response to amphetamine: reduced
[1]; saline-treated and MAM-treated animals
  cortical-evoked responses of HPC neurons: diminished

## CCC[C@@H]1CC(=O)N([C@@H](CC)C(N)=O)C1 [brivaracetam]
[2]
  number of errors in the retention phase after 2-hr delay: significant effect as a function of dose
[3]; 14 days, n=3/group, t(2)=10.000, p=0.010
  spatial bias for the target quadrant compared to the other quadrants: significant spatial bias
[3]; t(4)=3.109, p=0.036
  time in the target annulus compared to vehicle-treated rats: significantly more time
[3]; t(4)=3.881, p=0.018
  time in the target quadrant compared to vehicle-treated rats: significantly more time

## CC[C@@H](C(N)=O)N1C[C@H](C=C(F)F)CC1=O [seletracetam]
[2]
  number of errors in the retention phase after 2-hr delay: significant effect as a function of dose

## NC1=N[C@H](O)[C@H]2[C@H]3O[C@]4(O)O[C@@H]([C@@H](O)[C@@]2(N1)[C@@H]4O)[C@]3(O)CO [tetrodotoxin]
[4]
  augmented amphetamine-induced locomotor behavior: normalized
  elevated DA neuron population activity: completely reversed

## CCCC(CCC)C(=O)O [valproate, 2-propylpentanoate]
[5]; 25 mg/kg or 50 mg/kg subcutaneous
  effective in reducing the number of errors: not
[5]; 100 mg/kg subcutaneous
  effective in reducing the number of errors: effective
[6]; 50 mg/kg/day, chronic subcutaneous administration
  treatment of cognitive impairment: not effective
[6]; 100 mg/kg/day, chronic subcutaneous administration
  performance in a memory test: significantly improved
[6]; rat, in vivo
  blood total valproate level: 10 μg/ml plasma
